Consider 15 molecules from ChEMBL document CHEMBL1129506, “2,4-Diarylpyrrolidine-3-carboxylic acids--potent ETA selective endothelin receptor antagonists. 1. Discovery of A-127722” (J Med Chem, 1996).

Usually IC50 stands for the concentration that gives 50% inhibition. Lower therefore signals higher potency. As usually defined, the Ki is the equilibrium dissociation constant of an inhibitor or competing ligand from its target. Low values mean a stronger hold on the target, high ones a looser hold on the target.

The target in experiment [1] is T1, Endothelin receptor (Rattus norvegicus, UniProt P26684+P21451).
T1 sequence (P26684 whole entry): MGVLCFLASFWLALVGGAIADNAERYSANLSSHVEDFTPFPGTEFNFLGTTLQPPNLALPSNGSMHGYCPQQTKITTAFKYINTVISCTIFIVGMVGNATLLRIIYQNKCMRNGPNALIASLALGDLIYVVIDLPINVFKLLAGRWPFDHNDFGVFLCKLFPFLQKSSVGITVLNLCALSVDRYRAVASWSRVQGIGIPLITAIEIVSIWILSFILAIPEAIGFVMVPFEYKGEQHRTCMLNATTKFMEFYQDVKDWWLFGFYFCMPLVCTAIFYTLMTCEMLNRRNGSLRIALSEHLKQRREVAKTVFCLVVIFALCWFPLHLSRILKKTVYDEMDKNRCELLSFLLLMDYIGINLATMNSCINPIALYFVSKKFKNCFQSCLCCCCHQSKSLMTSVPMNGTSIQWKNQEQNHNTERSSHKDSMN
T1 sequence (P21451 whole entry): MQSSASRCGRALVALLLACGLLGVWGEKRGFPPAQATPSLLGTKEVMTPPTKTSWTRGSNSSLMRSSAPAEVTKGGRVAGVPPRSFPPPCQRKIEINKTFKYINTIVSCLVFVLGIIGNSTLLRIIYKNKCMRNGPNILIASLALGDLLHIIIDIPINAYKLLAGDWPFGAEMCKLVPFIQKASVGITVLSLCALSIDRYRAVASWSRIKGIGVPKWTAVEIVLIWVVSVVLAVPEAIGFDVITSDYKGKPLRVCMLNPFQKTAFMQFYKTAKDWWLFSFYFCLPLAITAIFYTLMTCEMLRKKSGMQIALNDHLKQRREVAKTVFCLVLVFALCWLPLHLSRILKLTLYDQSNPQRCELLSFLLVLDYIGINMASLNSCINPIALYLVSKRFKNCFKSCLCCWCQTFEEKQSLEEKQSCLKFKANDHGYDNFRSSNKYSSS
In words: Inhibition of phosphoinositol hydrolysis of MMQ cells. It is filed as functional, cell-based.

The target in experiment [2] is T2, Endothelin receptor type B (Sus scrofa, UniProt P35463).
T2 sequence (P35463 whole entry): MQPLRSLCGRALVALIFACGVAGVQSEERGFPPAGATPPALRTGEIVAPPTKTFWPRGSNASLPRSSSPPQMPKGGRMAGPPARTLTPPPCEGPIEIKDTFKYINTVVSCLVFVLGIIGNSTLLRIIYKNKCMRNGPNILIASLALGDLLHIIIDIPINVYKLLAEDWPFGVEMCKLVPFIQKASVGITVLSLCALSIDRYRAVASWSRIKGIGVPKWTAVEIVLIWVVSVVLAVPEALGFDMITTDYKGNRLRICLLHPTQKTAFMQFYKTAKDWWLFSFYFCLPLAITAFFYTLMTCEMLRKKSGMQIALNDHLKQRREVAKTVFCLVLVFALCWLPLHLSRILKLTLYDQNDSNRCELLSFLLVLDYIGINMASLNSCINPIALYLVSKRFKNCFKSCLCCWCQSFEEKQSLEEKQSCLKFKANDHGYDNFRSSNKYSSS
In words: Inhibitory activity measured against Endothelin B receptor binding to porcine cerebellum. It is filed as tissue-based.

Experiment [3] concerns the target T3, Endothelin-1 receptor (Homo sapiens, UniProt P25101).
T3 sequence (P25101 whole entry): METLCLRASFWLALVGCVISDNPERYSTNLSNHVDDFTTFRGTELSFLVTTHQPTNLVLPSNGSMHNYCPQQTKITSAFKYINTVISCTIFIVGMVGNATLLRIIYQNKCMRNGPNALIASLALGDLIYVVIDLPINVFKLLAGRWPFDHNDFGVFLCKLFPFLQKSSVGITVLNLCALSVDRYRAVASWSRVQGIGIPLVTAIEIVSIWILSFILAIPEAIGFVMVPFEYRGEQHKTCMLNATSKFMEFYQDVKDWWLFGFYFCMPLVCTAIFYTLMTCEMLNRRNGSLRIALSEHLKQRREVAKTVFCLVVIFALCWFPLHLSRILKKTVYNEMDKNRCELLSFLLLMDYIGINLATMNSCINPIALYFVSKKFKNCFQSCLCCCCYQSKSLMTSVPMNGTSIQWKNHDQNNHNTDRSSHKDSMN
The experiment can be described thus: Radioligand binding selectivity to human Endothelin A receptor in chinese hamster ovary cells. It is filed as cell-based, CHO.

Experiment [4] addresses T4, Endothelin-1 receptor (Rattus norvegicus, UniProt P26684).
T4 sequence (P26684 whole entry): T1 sequence (P26684 whole entry)
In words: Inhibitory activity against the Endothelin A receptor of rat MMQ cells. The class given is cell-based.

Experiment [5] concerns the target T5, Endothelin receptor type B (Homo sapiens, UniProt P24530).
T5 sequence (P24530 whole entry): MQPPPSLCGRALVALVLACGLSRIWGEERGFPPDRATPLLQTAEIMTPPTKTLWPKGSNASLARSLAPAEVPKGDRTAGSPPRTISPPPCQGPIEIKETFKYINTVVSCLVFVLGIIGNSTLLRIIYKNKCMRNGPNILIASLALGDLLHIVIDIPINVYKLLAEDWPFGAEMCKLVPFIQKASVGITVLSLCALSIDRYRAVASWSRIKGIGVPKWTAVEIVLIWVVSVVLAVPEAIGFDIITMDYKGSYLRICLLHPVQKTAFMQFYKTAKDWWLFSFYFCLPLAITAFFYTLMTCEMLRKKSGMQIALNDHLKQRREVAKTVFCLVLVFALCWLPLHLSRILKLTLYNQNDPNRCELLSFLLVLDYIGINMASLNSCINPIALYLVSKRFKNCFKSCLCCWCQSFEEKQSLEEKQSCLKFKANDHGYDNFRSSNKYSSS
In words: Radioligand binding selectivity to human Endothelin B receptor in chinese hamster ovary cells. The class given is cell-based, CHO.

Experiment [6] has as its target T2, Endothelin receptor type B. In words: Inhibitory activity was measured against Endothelin B receptor binding to porcine cerebellum; inactive. It is filed as tissue-based.
For experiment [7], the target named is T5, Endothelin receptor type B. In words: Inhibitory activity against human Endothelin B receptor in chinese hamster ovary cells. It is filed as cell-based, CHO.
Experiment [8] concerns the target T3, Endothelin-1 receptor. The experiment can be described thus: Inhibitory activity against human Endothelin A receptor in chinese hamster ovary cells. The class given is cell-based, CHO.

`CCCN(C)C(=O)CN1C[C@@H](c2ccc3c(c2)OCO3)[C@H](C(=O)O)[C@H]1c1ccc(OC)cc1`: the IC50 was 9.12 nM in experiment [1]; 2900 nM in experiment [2]; 21.3 nM in experiment [3]; 6.63 nM in experiment [4]; 4570 nM in experiment [5].

Take `CCCCCCN(C)C(=O)CN1C[C@@H](c2ccc3c(c2)OCO3)[C@H](C(=O)O)[C@H]1c1ccc(OC)cc1`: the IC50 in experiment [1] is 1 nM; in experiment [2] it was 404 nM; in experiment [4], 7.61 nM.

As for `CCCCN(C)C(=O)CN1C[C@@H](c2ccc3c(c2)OCO3)[C@H](C(=O)O)[C@H]1c1ccc(OC)cc1`, the IC50 in experiment [1] was determined as 0.97 nM; in experiment [2], 1390 nM; in experiment [3], 4.88 nM; in experiment [4], 4.71 nM; in experiment [5], 1080 nM.

Regarding `CCCCNC(=O)CN1C[C@@H](c2ccc3c(c2)OCO3)[C@H](C(=O)O)[C@H]1c1ccc(OC)cc1`, the 50% inhibitory concentration (IC50) was 10 nM in experiment [1], 1260 nM in experiment [2] and 43 nM in experiment [4].

For `CCCCN(CCCC)C(=O)CN1CC(c2ccc3c(c2)OCO3)C(C(N)=O)C1c1ccc(OC)cc1` (stereo not drawn), the IC50 entry in experiment [6] was “Not Active”; in experiment [4] it was 58 nM.

Take `COc1ccc([C@@H]2[C@@H](C(=O)O)[C@H](c3ccc4c(c3)OCO4)CN2CC(=O)N(C)CC(C)C)cc1`: the IC50 in experiment [1] came out at 0.28 nM; in experiment [2], 1050 nM; in experiment [4], 1.88 nM.

Regarding `CCCN(CCC)C(=O)CN1C[C@@H](c2ccc3c(c2)OCO3)[C@H](C(=O)O)[C@H]1c1ccc(OC)cc1`, the IC50 worked out at 0.24 nM in experiment [1], 598 nM in experiment [2], 0.55 nM in experiment [3] and 397 nM in experiment [5].

Consider `CCCNC(=O)CN1C[C@@H](c2ccc3c(c2)OCO3)[C@H](C(=O)O)[C@H]1c1ccc(OC)cc1`, for which the IC50 turned out to be 24.6 nM in experiment [1]; 398 nM in experiment [2]; 45.3 nM in experiment [3]; 17.2 nM in experiment [4]; 579 nM in experiment [5].

`CCN(CC)C(=O)CN1C[C@@H](c2ccc3c(c2)OCO3)[C@H](C(=O)O)[C@H]1c1ccc(OC)cc1`: the IC50 came out at 2.26 nM in experiment [1], 5250 nM in experiment [2] and 32.9 nM in experiment [4].

On to `COCCN(CCOC)C(=O)CN1C[C@@H](c2ccc3c(c2)OCO3)[C@H](C(=O)O)[C@H]1c1ccc(OC)cc1`, for which the figures for the IC50 in experiment [1], in experiment [2] and in experiment [4] were 4.91 nM, 1070 nM and 4.45 nM, respectively.

In the case of `CCCCN(CCC)C(=O)CN1C[C@@H](c2ccc3c(c2)OCO3)[C@H](C(=O)O)[C@H]1c1ccc(OC)cc1`, the IC50 in experiment [1] is 0.25 nM; in experiment [2], 40 nM; in experiment [3], 0.81 nM; in experiment [4] it was 0.22 nM; in experiment [5], 211 nM.

Take `C=CCNC(=O)CN1C[C@@H](c2ccc3c(c2)OCO3)[C@H](C(=O)O)[C@H]1c1ccc(OC)cc1`: the IC50 in experiment [1] turned out to be 16.5 nM; in experiment [2], 889 nM; in experiment [4], 34.2 nM.

Consider `Cc1noc(NS(=O)(=O)c2cccc3c(N(C)C)cccc23)c1C` [BMS-182874], for which the Ki in experiment [7] is greater than 50000 nM.

`CCCc1cc(C(=O)O)ccc1OC(C(=O)NS(=O)(=O)c1ccc(C(C)C)cc1)c1ccc2c(c1)OCO2` [L-754142]: the Ki in experiment [8] stood at 0.13 nM; in experiment [7], 5.4 nM.

Regarding `COc1ccc(C2(O)OC(=O)C(c3ccc4c(c3)OCO4)=C2Cc2cc(OC)c(OC)c(OC)c2)cc1` (stereo not drawn) [PD-156707], the Ki in experiment [7] stood at 139 nM.
